According to patent US8822458B2, “Substituted oxazolidinones and their use in the field of blood coagulation” (Bayer Intellectual Property GmbH, priority 1999, dated 2014):
pIC50: −log10 of the molar value. Values belong to the compound of their own block, whether it stands above or below them.

How the values were obtained:
human factor Xa (FXa) = human factor Xa (FXa) (Homo sapiens (Human), UniProt P00742); experiment: Determination of the factor Xa inhibition (chromogenic substrate); format: biochemical
Protocol: Factor Xa cleaves p-nitroaniline from the chromogenic substrate. The determinations were carried out in microtitre plates as follows.
The test substances, in various concentrations, were dissolved in DMSO and incubated at 25° C. with human FXa (0.5 nmol/l dissolved in 50 mmol/l of tris buffer [C,C,C-tris(hydroxymethyl)-aminomethane], 150 mmol/l of NaCl, 0.1% BSA (bovine serum albumin), pH=8.3) for 10 minutes. Pure DMSO was used as control. The chromogenic substrate (150 μmol 11 of Pefachrome® FXa from Pentapharm) was then added.

[1] = system: thrombus formation in arteriovenous shunt; experiment: Arteriovenous shunt model (rat), antithrombotic activity; format: in vivo; settings: po, read-out: ED50 [mg/kg] p.o.
Protocol: b) Determination of the Antithrombotic Activity (In Vivo) b.1) Arteriovenous Shunt Model (Rat) Fasting male rats (strain: HSD CPB:WU) having a weight of 200-250 g were anaesthetized using a Rompun/Ketavet solution (12 mg/kg/50 mg/kg). Thrombus formation was initiated in an arteriovenous shunt in accordance with the method described by Christopher N. Berry et al., Br. J. Pharmacol. (1994), 113, 1209-1214. To this end, the left jugular vein and the right carotid artery were exposed. The two vessels were connected by an extracorporeal shunt using a polyethylene tube (PE 60) of a length of 10 cm. […] The extracorporeal circulation was maintained for 15 minutes. The shunt was then removed and the nylon thread with the thrombus was weighed immediately. The weight of the nylon thread on its own had been determined before the experiment was started. Before the extracorporeal circulation was set up, the test substances were administered to the animals while awake either intravenously via the tail vein or orally using a pharyngeal tube.

Sequence of human factor Xa (FXa) (P00742 235-488): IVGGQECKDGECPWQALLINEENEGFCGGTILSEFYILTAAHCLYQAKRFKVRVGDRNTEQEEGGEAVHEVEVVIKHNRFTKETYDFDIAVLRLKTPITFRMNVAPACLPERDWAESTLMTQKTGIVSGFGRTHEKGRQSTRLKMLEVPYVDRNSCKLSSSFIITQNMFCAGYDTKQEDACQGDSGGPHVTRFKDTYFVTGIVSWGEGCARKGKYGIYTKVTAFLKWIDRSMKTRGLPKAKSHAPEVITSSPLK
Sequence of human factor Xa (FXa) (P00742 41-179 partner): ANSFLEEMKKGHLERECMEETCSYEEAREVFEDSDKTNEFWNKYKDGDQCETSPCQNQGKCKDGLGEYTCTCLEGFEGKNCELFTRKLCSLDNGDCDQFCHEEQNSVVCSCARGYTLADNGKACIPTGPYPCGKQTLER

pIC50 (human factor Xa (FXa); human FXa 0.5 nmol/l, Pefachrome FXa substrate, 25° C., value printed in example text): 6.08
SMILES: O=C(NC[C@H]1CN(c2ccc(S(=O)(=O)N3CCC3)cc2)C(=O)O1)c1ccc(Cl)s1 [Example 39, 5-Chloro-N-({(5S)-3-[4-(1-azetidinylsulphonyl)phenyl]-2-oxo-1,3-oxazolidin-5-yl}methyl)-2-thiophenecarboxannide]

SMILES: O=C(NC[C@H]1CN(c2ccc(N3CCOCC3=O)cc2)C(=O)O1)c1ccc(Cl)s1 [Example 44, 5-Chloro-N-({(5S)-2-oxo-3-[4-(3-oxo-4-morpholinyl)phenyl]-1,3-oxazolidin-5-yl}methyl)-2-thiophenecarboxamide]
ED50 [1]: 3 mg/kg

pIC50 (human factor Xa (FXa); human FXa, table of Examples 48-57): 6.92
SMILES: O=C(NC[C@H]1CN(c2ccc(N3CCN(C(=O)CO)CC3)c(F)c2)C(=O)O1)c1ccc(Cl)s1 [Example 48]
